Positions of bridges follow the written chain, without caps; N, C: chain ends. Non-standard residues stand in square brackets, D forms with d. Residues, ends and D or L forms follow the SMILES beside them. Trp(6-Cl) = N[C@@H](Cc1c[nH]c2cc(Cl)ccc12)C(=O)O; 2Nal = N[C@@H](Cc1ccc2ccccc2c1)C(=O)O; Met(O2) = CS(=O)(=O)CC[C@H](N)C(=O)O; hCit = NC(=O)NCCCC[C@H](N)C(=O)O; hCys = N[C@@H](CCS)C(=O)O; Nle = CCCC[C@H](N)C(=O)O

The first assay deals with human TSP1 (Homo sapiens, UniProt P07996). As to the kind of experiment: Cell adhesion inhibition assay (HUVEC adhesion to TSP1-coated plate). The note with it: HUVEC adhesion to TSP1-coated plate; read-out: cell adhesion inhibition (Table 4). It counts as cell-based. On the procedure: As referred to herein, the TSP1 inhibitory activity refers to the activity to inhibit one or more effects of TSP1, including angiostatic effect. The TSP1 inhibitory activity is measured by a cell adhesion inhibition assay using human TSP1 and vascular endothelial cells as described hereinbelow in the Examples section. In this assay, when the 50% inhibitory concentration (IC5O) of a test substance is 200 nM or less, the test substance is determined to have TSP1 inhibitory activity.
Sequence of human TSP1 (P07996 19-1170 limits assumed): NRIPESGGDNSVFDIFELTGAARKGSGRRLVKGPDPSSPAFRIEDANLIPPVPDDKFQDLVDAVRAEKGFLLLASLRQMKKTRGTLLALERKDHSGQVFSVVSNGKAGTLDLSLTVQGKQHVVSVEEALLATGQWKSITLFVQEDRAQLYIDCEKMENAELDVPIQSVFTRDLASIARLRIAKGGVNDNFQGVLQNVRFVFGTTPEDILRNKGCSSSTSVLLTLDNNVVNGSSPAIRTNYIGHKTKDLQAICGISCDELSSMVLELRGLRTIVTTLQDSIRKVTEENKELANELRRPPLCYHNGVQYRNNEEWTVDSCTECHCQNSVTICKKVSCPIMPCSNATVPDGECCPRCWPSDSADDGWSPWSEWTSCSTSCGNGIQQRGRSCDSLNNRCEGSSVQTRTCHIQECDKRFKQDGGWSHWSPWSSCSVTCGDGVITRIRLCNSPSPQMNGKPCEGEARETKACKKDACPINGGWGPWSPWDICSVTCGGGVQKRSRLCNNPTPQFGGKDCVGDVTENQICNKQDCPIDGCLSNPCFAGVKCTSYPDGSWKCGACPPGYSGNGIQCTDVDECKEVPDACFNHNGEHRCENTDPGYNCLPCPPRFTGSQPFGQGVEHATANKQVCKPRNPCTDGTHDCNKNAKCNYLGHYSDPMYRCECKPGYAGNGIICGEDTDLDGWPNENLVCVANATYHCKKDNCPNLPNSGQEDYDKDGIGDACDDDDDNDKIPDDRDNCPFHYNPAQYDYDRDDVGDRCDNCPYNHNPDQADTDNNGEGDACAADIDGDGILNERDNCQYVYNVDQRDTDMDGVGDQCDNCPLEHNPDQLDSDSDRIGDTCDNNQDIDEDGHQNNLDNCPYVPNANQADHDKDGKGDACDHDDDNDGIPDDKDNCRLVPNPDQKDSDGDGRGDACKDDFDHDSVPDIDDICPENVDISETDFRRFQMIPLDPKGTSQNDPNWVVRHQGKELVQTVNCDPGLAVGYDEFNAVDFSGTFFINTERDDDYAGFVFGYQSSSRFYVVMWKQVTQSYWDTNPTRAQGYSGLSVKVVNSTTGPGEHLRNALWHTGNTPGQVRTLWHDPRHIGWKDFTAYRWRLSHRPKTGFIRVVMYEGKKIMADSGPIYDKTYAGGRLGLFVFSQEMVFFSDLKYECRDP
(Test Example 1) Cell Adhesion Inhibition Assay
I. Materials and Reagents
96 well Non-treated White with clear bottom (Coster, 3632)
BrightMax adhesive sealing films (EXCEL Scientific, WT50)
Proteosave®SS 15 mL (Sumitomo Bakelite, MS-52150)
Thrombospondin human platelet (Calbiochem, 605225)
EGM-2 MV (Lonza, CC-3202): for HUVEC passaging
Collagen coated dish (IWAKI, 4020-010): for HUVEC passaging
Lipidure®-BL802 (NOF Corporation), 5% solution
Albumin solution (35%) fraction V from Bovine (Sigma, A7979)
CellTiter-Glo (Promega, G7572)
Thrombospondin 1 vial (25 μg) was dissolved in TBS (+2 mM CaCl2; the same shall apply hereunder) to make a 200 μg/mL solution, which was diluted with TBS to a concentration of 10 μg/mL in Proteosave® 15 mL tube. The 10 μg/mL solution was dispensed into a 96 well plate at a volume of 50 μL/well (no reservoir was used since the protein easily adsorbs on it), and the plate was left to stand at 4° C. overnight.
Lipidure® was diluted 10-fold with TBS to make a 0.5% solution. After a buffer was discarded from the plate that had been coated at the step of <Plate coat> as described above, the 0.5% solution was dispensed into all wells to be used at a volume of 100 μL/well, and the plate was left to stand at room temperature for 1 hour.
A 0.2 μM solution of each sample was prepared using a dilution buffer (DMEM+0.5% BSA). 2 μL of the 0.2 μM solution was diluted with 500 μL, of dilution buffer to prepare a diluted sample. As a vehicle control, DMSO was diluted in the same way as the samples.
A blocking solution was discarded from the plate that had been treated at the step of <Plate blocking> as described above, and the plate was washed three times with 150 μL/well of TBS. The washing solution used for the third washing was completely sucked out by an aspirator, and the diluted sample was dispensed into the plate at a volume of 50 μL/well. Then, the plate was left to stand at room temperature for 15 to 30 minutes.
To maintain HUVECs, EGM2-MV and a collagen coated dish were used (the cells were ceased to be used after 10th or 1 lth passage since the cell proliferation rate declined at this stage). The cells were dispersed with 0.05% Trypsin/EDTA, harvested in DMEM/0.5% BSA, and centrifuged at 1000 rpm for 3 minutes. After removal of supernatant, the cells were washed once with a DMEM buffer. The cells were resuspended in a DMEM buffer, counted for cell number, and diluted to 10000 cells/50 μL. The cell suspension was dispensed at a volume of 50 μL/well into the plate into which the sample had been dispensed, mixed gently, and incubated at 37° C. for 2.5 hours.
After cell adhesion was confirmed, the culture medium was completely removed by an aspirator, and 100 μL/well of DMEM/0.5% BSA was gently dispensed. Then, DMEM/0.5% BSA was completely removed by an aspirator, and 50 μL/well of DMEM/0.5% BSA was dispensed. After a white seal was applied to the bottom of the plate, 50 μL/well of CellTiter-Glo® was dispensed, and the solution was stirred for 2 minutes and left to stand at room temperature for 8 minutes. […] was detected using EnVision Xcite Multilabel Reader (produced by Perkin Elmer).
On the basis of the measured fluorescence values, the IC50 values (nM) of the different macrocyclic polypeptides for inhibition of cell adhesion were calculated.
For the compound `CCCC[C@@H]1NC(=O)[C@H](Cc2c[nH]c3ccccc23)NC(=O)[C@H](CC(=O)O)NC(=O)[C@H](CCCNC(=N)N)NC(=O)CNC(=O)[C@H](CO)NC(=O)[C@H]([C@@H](C)CC)NC(=O)[C@H](Cc2ccc3ccccc3c2)NC(=O)[C@H](C)NC(=O)CSC[C@@H](C(N)=O)NC(=O)[C@H](C(C)C)NC(=O)[C@H](Cc2c[nH]c3ccccc23)NC(=O)[C@H](CCCCN)NC1=O` [Compound 80] ({CH2CO}-A[2Nal]ISGRDW[Nle]KWVC-NH2; thioether N-13), the IC50 was 11.5 nM.

On to `CCCC[C@@H]1NC(=O)[C@H](Cc2c[nH]c3ccccc23)NC(=O)[C@H](CC(=O)O)NC(=O)[C@H](CCCNC(=N)N)NC(=O)CNC(=O)[C@H](CO)NC(=O)[C@H]([C@@H](C)CC)NC(=O)[C@H](Cc2ccc3ccccc3c2)NC(=O)[C@H](CCC(N)=O)NC(=O)CSC[C@@H](C(N)=O)NC(=O)[C@H](C(C)C)NC(=O)[C@H](Cc2c[nH]c3ccccc23)NC(=O)[C@H](CCCCN)NC1=O` [Compound 86] ({CH2CO}-Q[2Nal]ISGRDW[Nle]KWVC-NH2; thioether N-13), for which the IC50 worked out at 14.2 nM.

The assay is the same for the next values; noted with them: HUVEC adhesion to human platelet thrombospondin-coated plate, 2.5 hours, CellTiter-Glo; read-out: Cell adhesion IC50.
On to `CC[C@H](C)[C@@H]1NC(=O)[C@H](Cc2ccc3ccccc3c2)NC(=O)CSCC[C@@H](C(N)=O)NC(=O)[C@H](C(C)C)NC(=O)[C@H](Cc2c[nH]c3ccccc23)NC(=O)[C@H](CCCCN)NC(=O)[C@H](C(C)C)NC(=O)[C@H](Cc2c[nH]c3ccccc23)NC(=O)[C@H](CC(N)=O)NC(=O)[C@H](CCCNC(=N)N)NC(=O)CNC(=O)[C@H](CO)NC1=O` [Compound 54] ({CH2CO}-[2Nal]ISGRNWVKWV[hCys]-NH2; thioether N-12), for which the IC50 was determined as 19.5 nM. `CCCC[C@@H]1NC(=O)[C@H](Cc2c[nH]c3ccccc23)NC(=O)[C@H](CC(=O)O)NC(=O)[C@H](CCCCNC(N)=O)NC(=O)CNC(=O)[C@H](CO)NC(=O)[C@H]([C@@H](C)CC)NC(=O)[C@H](Cc2ccc3ccccc3c2)NC(=O)CSC[C@@H](C(N)=O)NC(=O)[C@H](C(C)C)NC(=O)[C@H](Cc2c[nH]c3ccccc23)NC(=O)[C@H](CCCCN)NC1=O` [Compound 74] ({CH2CO}-[2Nal]ISG[hCit]DW[Nle]KWVC-NH2; thioether N-12): the IC50 came out at 20.7 nM. Still for that read-out and setting: the figure for `CCCC[C@@H]1NC(=O)[C@H](Cc2c[nH]c3ccccc23)NC(=O)[C@H](CC(=O)O)NC(=O)[C@H](CCS(C)(=O)=O)NC(=O)CNC(=O)[C@H](CO)NC(=O)[C@H]([C@@H](C)CC)NC(=O)[C@H](Cc2ccc3ccccc3c2)NC(=O)CSC[C@@H](C(N)=O)NC(=O)[C@H](C(C)C)NC(=O)[C@H](Cc2c[nH]c3ccccc23)NC(=O)[C@H](CCCCN)NC1=O` [Compound 71] ({CH2CO}-[2Nal]ISG[Met(O2)]DW[Nle]KWVC-NH2; thioether N-12) is 17.1 nM. Same read-out and setting: the figure for `CC[C@H](C)[C@@H]1NC(=O)[C@H](Cc2c[nH]c3ccccc23)NC(=O)CSC[C@@H](C(N)=O)NC(=O)[C@H](C(C)C)NC(=O)[C@H](Cc2c[nH]c3ccccc23)NC(=O)[C@H](CCCNC(=N)N)NC(=O)[C@H](C(C)C)NC(=O)[C@H](Cc2c[nH]c3ccccc23)NC(=O)[C@H](CC(N)=O)NC(=O)[C@H](CCCNC(=N)N)NC(=O)CNC(=O)[C@H](CO)NC1=O` [Compound 11] ({CH2CO}-WISGRNWVRWVC-NH2; thioether N-12) is 26 nM; for `CCCC[C@@H]1NC(=O)[C@H](Cc2c[nH]c3ccccc23)NC(=O)[C@H](CC(N)=O)NC(=O)[C@H](CCCNC(=N)N)NC(=O)CNC(=O)[C@H](CO)NC(=O)[C@H]([C@@H](C)CC)NC(=O)[C@H](Cc2ccc3ccccc3c2)NC(=O)CSC[C@@H](C(N)=O)NC(=O)[C@H](C(C)C)NC(=O)[C@H](Cc2c[nH]c3ccccc23)NC(=O)[C@H](CCCCN)NC1=O` [Compound 38] ({CH2CO}-[2Nal]ISGRNW[Nle]KWVC-NH2; thioether N-12) it is 9.2 nM; for `CCCC[C@@H]1NC(=O)[C@H](Cc2c[nH]c3ccccc23)NC(=O)[C@H](CC(N)=O)NC(=O)[C@H](Cc2c[nH]cn2)NC(=O)CNC(=O)[C@H](CO)NC(=O)[C@H]([C@@H](C)CC)NC(=O)[C@H](Cc2ccc3ccccc3c2)NC(=O)CSC[C@@H](C(N)=O)NC(=O)[C@H](C(C)C)NC(=O)[C@H](Cc2c[nH]c3ccccc23)NC(=O)[C@H](CCCCN)NC1=O` [Compound 59] ({CH2CO}-[2Nal]ISGHNW[Nle]KWVC-NH2; thioether N-12) it is 20.7 nM. The same measure, in the same setting: the result for `CC[C@H](C)[C@@H]1NC(=O)[C@H](Cc2c[nH]c3ccccc23)NC(=O)CSC[C@@H](C(N)=O)NC(=O)[C@H](C(C)C)NC(=O)[C@H](Cc2c[nH]c3ccccc23)NC(=O)[C@H](CCCCN)NC(=O)[C@H](C(C)C)NC(=O)[C@H](Cc2c[nH]c3ccccc23)NC(=O)[C@H](CC(N)=O)NC(=O)[C@H](CCCNC(=N)N)NC(=O)CNC(=O)[C@H](CO)NC1=O` [Compound 9] ({CH2CO}-WISGRNWVKWVC-NH2; thioether N-12) reads 27.3 nM. Regarding `CCCC[C@@H]1NC(=O)[C@H](Cc2c[nH]c3ccccc23)NC(=O)[C@H](CC(=O)O)NC(=O)[C@@H]2CCCN2C(=O)CNC(=O)[C@H](CO)NC(=O)[C@H]([C@@H](C)CC)NC(=O)[C@H](Cc2ccc3ccccc3c2)NC(=O)CSC[C@@H](C(N)=O)NC(=O)[C@H](C(C)C)NC(=O)[C@H](Cc2c[nH]c3ccccc23)NC(=O)[C@H](CCCCN)NC1=O` [Compound 68] ({CH2CO}-[2Nal]ISGPDW[Nle]KWVC-NH2; thioether N-12), the IC50 was found to be 28.1 nM. `CC[C@H](C)[C@@H]1NC(=O)[C@H](Cc2ccc3ccccc3c2)NC(=O)CSC[C@@H](C(N)=O)NC(=O)[C@H](C(C)C)NC(=O)[C@H](Cc2c[nH]c3ccccc23)NC(=O)[C@H](CCCCN)NC(=O)[C@H](C(C)C)NC(=O)[C@H](Cc2c[nH]c3cc(Cl)ccc23)NC(=O)[C@H](CC(N)=O)NC(=O)[C@H](CCCNC(=N)N)NC(=O)CNC(=O)[C@H](CO)NC1=O` [Compound 35] ({CH2CO}-[2Nal]ISGRN[Trp(6-Cl)]VKWVC-NH2; thioether N-12): the IC50 was determined as 26 nM. The same measure, in the same setting: the figure for `CC[C@H](C)[C@@H]1NC(=O)[C@H](Cc2ccc3ccccc3c2)NC(=O)CSC[C@@H](C(N)=O)NC(=O)[C@H](C(C)C)NC(=O)[C@H](Cc2c[nH]c3ccccc23)NC(=O)[C@H](CCCCN)NC(=O)[C@H](C(C)C)NC(=O)[C@H](Cc2c[nH]c3ccccc23)NC(=O)[C@H](CC(N)=O)NC(=O)[C@H](CCCNC(=N)N)NC(=O)CNC(=O)[C@H](C)NC1=O` [Compound 30] ({CH2CO}-[2Nal]IAGRNWVKWVC-NH2; thioether N-12) is 16.7 nM; for `CC[C@H](C)[C@@H]1NC(=O)[C@H](Cc2ccccc2)NC(=O)CSC[C@@H](C(N)=O)NC(=O)[C@H](C(C)C)NC(=O)[C@H](Cc2c[nH]c3ccccc23)NC(=O)[C@H](CCCCN)NC(=O)[C@H](CCSC)NC(=O)[C@H](Cc2c[nH]c3ccccc23)NC(=O)[C@H](CC(N)=O)NC(=O)[C@H](CCCCN)NC(=O)CNC(=O)[C@H](CO)NC1=O` [Compound 19] ({CH2CO}-FISGKNWMKWVC-NH2; thioether N-12) it is 14 nM.

Regarding `CC[C@H](C)[C@@H]1NC(=O)[C@H](Cc2c[nH]c3ccccc23)NC(=O)CSC[C@@H](C(N)=O)NC(=O)[C@H](C(C)C)NC(=O)[C@H](Cc2c[nH]c3ccccc23)NC(=O)[C@H](CCCCN)NC(=O)[C@H](C(C)C)NC(=O)[C@H](Cc2c[nH]c3ccccc23)NC(=O)[C@H]([C@@H](C)O)NC(=O)[C@H](CCCNC(=N)N)NC(=O)CNC(=O)[C@H](CO)NC1=O` [Compound 23] ({CH2CO}-WISGRTWVKWVC-NH2; thioether N-12), the IC50 was 15.6 nM.

For the origin of these results see patent US11149066B2, “Thrombospondin 1-binding peptide” (DAIICHI SANKYO COMPANY, LIMITED, priority 2016, dated 2021).
